Entries after “also recorded” stand apart in the source; their conditions may differ.
Legend:
endothelial cells = experiment: LIVE/DEAD calcein/ethidium bromide assay, endothelial cell kill rate; type: cell-based, human; conditions: for Endothelial, averaged ethidium numbers: kill rate (ethidium), same plate as adipocytes; for Endothelial, relative kill rate rated against the adipocyte kill rate: percentage in brackets
Protocol: (§1) The time and concentration dependent effects of drug substance on both cell viability and toxicity were evaluated using a two-color fluorescence assay that measures plasma membrane integrity and intracellular enzyme activity. Live cells are determined by the strong fluorescence of calcein AM upon enzymatic conversion. […] The ratio of ethidium to calcein fluorescence is an excellent measure of the relative amount of live and dead cells.
(§2) Initial screening was performed using a variety of cell viability and cytotoxicity assays, including Presto Blue® (Invitrogen, Grand Island, N.Y.), Alamar Blue® (Invitrogen, Grand Island, N.Y.), Cyto-Tox One® (Promega, Madison, Wis.), and Cell Titer Glo® (Promega, Madison, Wis.). […] An MTT terazolium assay was performed, as well as LDH and ATP based assays. […] The LIVE/DEAD® for mammalian cells assay was used. LIVE/DEAD® for mammalian cells assay is a calcein (live read)/ethidium bromide (dead) multiplex assay.
(§3) A sample of DMSO/PBS was a negative control. A sample of Aqualyx® was a positive control. In the table, 24M is phosphatidylcholine 25 mg/ml plus deoxycholate 12 mg/and 25N is C 50/DC24; these were positive controls. The numbers in the table refer to averaged ethidium numbers. The percentages represent the relative kill rate for each cell type when rated against the adipocyte kill rate for that compound. All tissue types were tested on the same plate against adipocytes in order to standardize results.
(§4) Over seventy compounds of the embodiments were tested for adipocytolysis, then for tissue preference. A consistent assay with multiplex information was a calcein/ethidium bromide assay that assesses cell viability and cell death simultaneously. Cell viability was checked using the Countess device. All plates were inoculated with 100 microliters of the appropriate cell types. A 6 well repeat was used to verify results. Cell types used included cultured human adult derived adipocytes, dermal fibroblasts, skeletal muscle cells, and endothelial cells (Cell Applications, Inc., San Diego, Calif.). Human peripheral nerve cells (Innoprot, Spain) were also used.
(§5) Compounds were formulated using a DMSO/PBS excipient. A 10 mg/ml concentration was used. One hundred microliters of test compound was inserted into 6 wells of 5 cell types, placed in adjacent rows. The plates were incubated for 4 hours. Indicator was added to each well, and plates were read at 45 minutes using a fluorescence spectrophotometer (Molecular Devices, Sunnyvale, Calif.).

skeletal muscle cells = experiment: LIVE/DEAD calcein/ethidium bromide assay, muscle cell kill rate; type: cell-based, human; conditions: for Muscle, averaged ethidium numbers: kill rate (ethidium), same plate as adipocytes; for Muscle, relative kill rate rated against the adipocyte kill rate: percentage in brackets
Protocol: as §1, §2, §3, §4, §5

adipocytes = experiment: LIVE/DEAD calcein/ethidium bromide assay, adipocyte kill rate; type: cell-based, human; conditions: for Adipocyte, averaged ethidium numbers: kill rate (ethidium), all tissue types on the same plate; for adipocyte kill rate / aggressiveness: Example 2, FIGS. 5-8 and table
Protocol: as §1, §2, §3, §4, §5

nerve cells = type: cell-based; conditions: for Nerve, averaged ethidium numbers: kill rate (ethidium), same plate as adipocytes; for Nerve, relative kill rate rated against the adipocyte kill rate: percentage in brackets; for toxicity to nerve cells: Example 2, FIGS. 6-8
Protocol: as §1, §2, §3, §4, §5

dermal fibroblasts = type: cell-based; conditions: for Dermis, averaged ethidium numbers: kill rate (ethidium), same plate as adipocytes; for Dermis, relative kill rate rated against the adipocyte kill rate: percentage in brackets; for toxicity to dermis / dermal fibroblasts: Example 2, FIGS. 6-8
Protocol: as §1, §2, §3, §4, §5

[1] = tested on: adipocytes over nerve cells, dermal cells, muscle cells, and endothelial cells; experiment: LIVE/DEAD assay, tissue preference (adipocytes versus other cell types); type: cell-based, human; conditions: for tissue preference for adipocytes: Example 2; for tissue specificity / tissue preference: Example 2, FIGS. 5-8 and table, 2 and 5 hours in FIGS. 6-8

## O=Cc1c[nH]c2cc(OCc3ccccc3)ccc12 [Compound 44, 6-(benzyloxy)-1H-indole-3-carbaldehyde]
Endothelial cells
  Endothelial, averaged ethidium numbers: 129
  Endothelial, relative kill rate rated against the adipocyte kill rate: 59%
Skeletal muscle cells
  Muscle, averaged ethidium numbers: 172
  Muscle, relative kill rate rated against the adipocyte kill rate: 79%
adipocytes
  Adipocyte, averaged ethidium numbers: 218
Nerve cells
  Nerve, averaged ethidium numbers: 103
  Nerve, relative kill rate rated against the adipocyte kill rate: 47%
Dermal fibroblasts
  Dermis, averaged ethidium numbers: 134
  Dermis, relative kill rate rated against the adipocyte kill rate: 61%
[1]
  tissue preference for adipocytes: about 50%
  tissue specificity / tissue preference: not as specific as the other compounds tested in this group

## O=C(O)CCCc1c[nH]c2ccccc12 [Compound 10, 4-(1H-indol-3-yl) butanoic acid]
Endothelial cells
  Endothelial, averaged ethidium numbers: 16.5
  Endothelial, relative kill rate rated against the adipocyte kill rate: 37%
Skeletal muscle cells
  Muscle, averaged ethidium numbers: 13
  Muscle, relative kill rate rated against the adipocyte kill rate: 29%
adipocytes
  adipocyte kill rate / aggressiveness: most aggressive
  Adipocyte, averaged ethidium numbers: 45
Nerve cells
  Nerve, averaged ethidium numbers: 12
  Nerve, relative kill rate rated against the adipocyte kill rate: 27%
Dermal fibroblasts
  Dermis, averaged ethidium numbers: 10
  Dermis, relative kill rate rated against the adipocyte kill rate: 22%

## O=Cc1c[nH]c2cccc(OCc3ccccc3)c12 [Compound 43, 4-(benzyloxy)-1H-indole-3-carbaldehyde]
Endothelial cells
  Endothelial, averaged ethidium numbers: 92.5
  Endothelial, relative kill rate rated against the adipocyte kill rate: 27%
Skeletal muscle cells
  Muscle, averaged ethidium numbers: 73
  Muscle, relative kill rate rated against the adipocyte kill rate: 21%
adipocytes
  adipocyte kill rate / aggressiveness: aggressive; also recorded: adipolytic
  Adipocyte, averaged ethidium numbers: 340
Nerve cells
  toxicity to nerve cells: low kill rate
  Nerve, averaged ethidium numbers: 58
  Nerve, relative kill rate rated against the adipocyte kill rate: 17%
Dermal fibroblasts
  toxicity to dermis / dermal fibroblasts: low kill rate
  Dermis, averaged ethidium numbers: 74
  Dermis, relative kill rate rated against the adipocyte kill rate: 22%
[1]
  tissue specificity / tissue preference: most strongly tissue preferential

## O=Cc1cccc2[nH]ccc12 [Compound 5, 1H-indole-4-carbaldehyde]
Endothelial cells
  Endothelial, averaged ethidium numbers: 16
  Endothelial, relative kill rate rated against the adipocyte kill rate: 44%
Skeletal muscle cells
  Muscle, averaged ethidium numbers: 27
  Muscle, relative kill rate rated against the adipocyte kill rate: 75%
adipocytes
  Adipocyte, averaged ethidium numbers: 36
Nerve cells
  toxicity to nerve cells: more nerve preservation
  Nerve, averaged ethidium numbers: 17
  Nerve, relative kill rate rated against the adipocyte kill rate: 47%
Dermal fibroblasts
  toxicity to dermis / dermal fibroblasts: late dermal spike
  Dermis, averaged ethidium numbers: 17
  Dermis, relative kill rate rated against the adipocyte kill rate: 47%
[1]
  tissue preference for adipocytes: about 50%

## O=C(O)c1cccc2[nH]ccc12 [Compound 27, 1H-indole-4-carboxylic acid]
[1]
  tissue specificity / tissue preference: high specificity

## O=Cc1c[nH]c2c3c(ccc12)CCC3 [Compound 7, 1,6,7,8-tetrahydrocyclopenta[g]indole-3-carbaldehyde]
Endothelial cells
  Endothelial, averaged ethidium numbers: 69
  Endothelial, relative kill rate rated against the adipocyte kill rate: 35%
Skeletal muscle cells
  Muscle, averaged ethidium numbers: 119
  Muscle, relative kill rate rated against the adipocyte kill rate: 61%
adipocytes
  Adipocyte, averaged ethidium numbers: 196
Nerve cells
  Nerve, averaged ethidium numbers: 56
  Nerve, relative kill rate rated against the adipocyte kill rate: 30%
Dermal fibroblasts
  Dermis, averaged ethidium numbers: 103
  Dermis, relative kill rate rated against the adipocyte kill rate: 53%
[1]
  tissue specificity / tissue preference: not tissue preference

## O=C(O)c1ccc2[nH]ccc2c1 [Compound 28, 1H-indole-5-carboxylic acid]
adipocytes
  adipocyte kill rate / aggressiveness: high kill rate
[1]
  tissue specificity / tissue preference: high specificity

## O=Cc1c[nH]c2ccccc12 [Compound 1, 1H-indole-3-carbaldehyde]
Endothelial cells
  Endothelial, averaged ethidium numbers: 98
Skeletal muscle cells
  Muscle, averaged ethidium numbers: 82
adipocytes
  Adipocyte, averaged ethidium numbers: 53
Nerve cells
  Nerve, averaged ethidium numbers: 60
Dermal fibroblasts
  Dermis, averaged ethidium numbers: 56
[1]
  tissue specificity / tissue preference: no preference

## O=C(O)c1cc2cc(Br)ccc2[nH]1 [Compound 40, 5-bromo-1H-indole-2-carboxylic acid]
Endothelial cells
  Endothelial, averaged ethidium numbers: 40
  Endothelial, relative kill rate rated against the adipocyte kill rate: 33%
Skeletal muscle cells
  Muscle, averaged ethidium numbers: 36
  Muscle, relative kill rate rated against the adipocyte kill rate: 29%
adipocytes
  adipocyte kill rate / aggressiveness: moderate
  Adipocyte, averaged ethidium numbers: 123
Nerve cells
  Nerve, averaged ethidium numbers: 61
  Nerve, relative kill rate rated against the adipocyte kill rate: 50%
Dermal fibroblasts
  Dermis, averaged ethidium numbers: 33
  Dermis, relative kill rate rated against the adipocyte kill rate: 27%
[1]
  tissue specificity / tissue preference: most strongly tissue preferential; also recorded: tissue specificity at two time points; also recorded: high specificity

## O=Cc1ccc2[nH]ccc2c1 [Compound 3, 1H-indole-5-carbaldehyde]
Endothelial cells
  Endothelial, averaged ethidium numbers: 25
  Endothelial, relative kill rate rated against the adipocyte kill rate: 59%
Skeletal muscle cells
  Muscle, averaged ethidium numbers: 25
  Muscle, relative kill rate rated against the adipocyte kill rate: 59%
adipocytes
  Adipocyte, averaged ethidium numbers: 42.5
Nerve cells
  Nerve, averaged ethidium numbers: 26
  Nerve, relative kill rate rated against the adipocyte kill rate: 61%
Dermal fibroblasts
  Dermis, averaged ethidium numbers: 26.5
  Dermis, relative kill rate rated against the adipocyte kill rate: 62%
[1]
  tissue specificity / tissue preference: moderate preference

## O=Cc1cccc2cc[nH]c12 [Compound 4, 1H-indole-7-carbaldehyde]
Endothelial cells
  Endothelial, averaged ethidium numbers: 86
  Endothelial, relative kill rate rated against the adipocyte kill rate: 63%
Skeletal muscle cells
  Muscle, averaged ethidium numbers: 99
  Muscle, relative kill rate rated against the adipocyte kill rate: 78%
adipocytes
  adipocyte kill rate / aggressiveness: less aggressive
  Adipocyte, averaged ethidium numbers: 127
Nerve cells
  Nerve, averaged ethidium numbers: 66
  Nerve, relative kill rate rated against the adipocyte kill rate: 52%
Dermal fibroblasts
  Dermis, averaged ethidium numbers: 79
  Dermis, relative kill rate rated against the adipocyte kill rate: 62%
[1]
  tissue preference for adipocytes: about 50%
  tissue specificity / tissue preference: shows specificity for adipocyte killing

## O=C(O)[C@H]1Cc2c([nH]c3ccccc23)[C@@H](c2ccc(O)cc2O)N1 [Compound 78, (1R,3R)-1-(2,4-dihydroxyphenyl)-2,3,4,9-tetrahydro-1H-pyrido [3,4-b]indole-3-carboxylic acid]
Endothelial cells
  Endothelial, averaged ethidium numbers: 9.8
  Endothelial, relative kill rate rated against the adipocyte kill rate: 33%
Skeletal muscle cells
  Muscle, averaged ethidium numbers: 8.7
  Muscle, relative kill rate rated against the adipocyte kill rate: 29%
adipocytes
  Adipocyte, averaged ethidium numbers: 29.5
Dermal fibroblasts
  Dermis, averaged ethidium numbers: 8.3
  Dermis, relative kill rate rated against the adipocyte kill rate: 28%
[1]
  tissue specificity / tissue preference: high specificity

## O=C(O)c1c[nH]c2ccccc12 [Compound 30, 1H-indole-3-carboxylic acid]
[1]
  tissue preference for adipocytes: about 50%

Source: patent US10653670B2, “Use of indole compounds for fat reduction and skin and soft tissue tightening” (Alevere Medical Corporation, priority 2013, dated 2020)
